Measured values taken from patent US11435353B2, “Method of evaluating drug resistance and treatment effect” (priority 2018, dated 2022).
Entries after “also recorded” stand apart in the source; their conditions may differ. Read-outs that look alike come from different tables or passages of the source.

How the values were obtained:
Merlin = test: Western blot of Merlin expression after tamoxifen treatment; format: cell-based; settings: increasing concentrations, 48 hours
Method: (§1) Whole cell extracts were lysed in RIPA buffer and collected to fractionate by SDSPAGE, and then transferred onto PVDF membranes according to the manufacture's protocols (Bio-Rad). After blocking with 5% nonfat milk in TBST for 60 min, membranes were washed and incubated with primary antibodies at 4° C. overnight. Membranes were washed three times for 10 min and incubated with secondary antibodies for 60 min. Protein expressions were visualized by ECL system according to the manufacture's protocols.

TRBP mRNA = test: qRT-PCR of TRBP mRNA level; format: cell-based; settings: FIG. 7A
Method: (§2) Then, in order to investigate changes in TRBP protein stability, the […] of TRBP was analyzed by further treating the tamoxifen-resistant cell (MCF-7/TR) and the tamoxifen-resistant cell (MCF-7/TR1) with 50 μg/ml cycloheximide (CHX) to block de novo protein synthesis, followed by harvesting the tamoxifen-resistant cell (MCF-7/TR) and the tamoxifen-resistant cell (MCF-7/TR1) at an indicated time point to analyze the expression of TRBP in the tamoxifen-resistant cell (MCF-7/TR) and the tamoxifen-resistant cell through another western blot, wherein the degradation rates were plotted for the average±SEM of at least three independent experiments and analyzed by two-way ANOVA (*P≤0.05 and **P≤0.01).
(§3) Total RNA was isolated by using Trizol reagent according to the manufacturer's instructions. 200 ng of RNA was reverse transcribed to complementary DNA (cDNA) by using a reverse transcriptase enzyme, a random primer, dNTPs and an RNase inhibitor. Real-time PCR was performed by Applied Biosystem Step One Real-time PCR system (Applied Biosystems) according to manufacturer's protocols. Samples run in three independent experiments and GAPDH or α-tubulin were used as an internal control to normalize the target genes.

p-AKT = test: Western blot of p-AKT; format: cell-based; settings: left of FIG. 8K
Method: (§4) On the other hands, similar experiments above are also performed to identify the upstream modulator of TRBP.
as §1

SOX2 mRNA = test: qRT-PCR of stem cell marker mRNA (SOX2); format: cell-based; settings: MCF-7 cells, 2 μM, 48 hours, FIG. 8A/8F
Method: (§5) Then, the tamoxifen-sensitive cells (MCF-7) were further collected to analyze protein expression by using a western blot.
After that, RNA was isolated from the tamoxifen-sensitive cell (MCF-7) to analyze the mRNA expression of SOX2 by using a reverse-transcription PCR (qRT-PCR).
as §3

TRBP protein = test: Cycloheximide chase, TRBP protein stability by western blot; format: cell-based
Method: as §2, §1

[1] = test system: tamoxifen-resistant cell (MCF-7/TR)
Method: (§6) Cell viability was analyzed by MTT (3, [4,5-dimethylthiazol-2-yl-]diphenyltetrazolium bromide, 5 mg/ml). Cells were seeding in 96-well plates and incubated overnight, and then changed into the fresh medium containing indicated concentrations of tamoxifen for 72 h. 50 μl of MTT was added to each well and incubated for 2 h, and the purple formazan crystals were dissolved in DMSO. The absorbance was measured by a microplate reader at a wavelength of 570 nm.

TRBP = test: Western blot of TRBP expression after tamoxifen or 4OHT treatment; format: cell-based; settings: 48 hours
Method: as §4, §1

cyclin D1 = test: qRT-PCR and western blot of cyclin D1; format: cell-based; settings: MCF-7 cells, 2 μM, 48 hours, FIG. 8A/8B
Method: as §5, §1, §3

SOX2 protein [2] = test: Western blot of SOX2 protein expression; format: cell-based
Method: In order to identify the downstream modulator of TRBP, the tamoxifen-sensitive cells (MCF-7) were treated with 2 μM tamoxifen for 48 hours, and then RNA of the tamoxifen-sensitive cell (MCF-7) was isolated to analyze the mRNA expression of stem cell markers by using a reverse-transcription PCR (qRT-PCR), with the aforementioned experiment being repeated at least three times, and with ATP5E being used as a positive control for tamoxifen treatment (*P<0.05) by t-test. Then, the tamoxifen-sensitive cells (MCF-7) were further collected to analyze protein expression by using a western blot. Accordingly, we determined the expression of several key factors that have been reported to modulate self-renewal and drug resistance of cancer cells, including SOX2, Nanog, OCT4, Lin28A, CCND1.
as §4, §1

SOX2 protein [3] = test: SOX2 protein stability; format: cell-based
[4] = test system: ER+ breast cancer cell (ZR-75-1)
Method: as §6

[5] = test system: ER+ breast cancer cell (ZR-75-1); test: MTT assay of cytotoxic effects in ZR-75-1 cells; settings: short-term treatment, FIG. 5C/5D
Method: as §6

Molecule	expression of Merlin (Merlin; MCF-7 cells, FIG. 7D)	expression of Merlin (Merlin; ZR-75-1 cells, FIG. 7E)	TRBP mRNA level (TRBP mRNA; MCF-7/TR1 cells)	TRBP mRNA level (TRBP mRNA; MCF-7/TR cells pretreated with 2 μM tamoxifen for 48 hours)	p-AKT level after tamoxifen treatment (p-AKT)	expression of SOX2 mRNA (SOX2 mRNA)	degradation of TRBP protein (TRBP protein; tamoxifen-treated vs untreated MCF-7, 50 μg/ml cycloheximide, FIG. 7B)	degradation of TRBP protein (TRBP protein; tamoxifen-treated vs untreated MCF-7/TR1, 50 μg/ml cycloheximide, FIG. 7C)	cytotoxic effects (MTT) [1]	TRBP expression (TRBP; ER- Hs578T cells, FIG. 5E)	TRBP expression (TRBP; ER- MDA-MB-231 cells, FIG. 5E)	TRBP expression (TRBP; ER- SKBR3 cells, FIG. 5E)	TRBP expression (TRBP; MCF-7/TR cells, increasing concentrations, FIG. 5A/5B)	cyclin D1 expression (cyclin D1)	expression of SOX2 protein (SOX2 protein [2]; MCF-7 cells, 2 μM, 48 hours, FIG. 8B)	SOX2 level after tamoxifen treatment (SOX2 protein [2]; right of FIG. 8K)	SOX2 protein degradation (SOX2 protein [3]; tamoxifen-treated vs untreated MCF-7, FIG. 8G)	SOX2 protein degradation (SOX2 protein [3]; tamoxifen-treated vs untreated MCF-7/TR, FIG. 8H)	cytotoxic effects (MTT) [4]	cytotoxic effects (MTT) [5]
CC/C(=C(\c1ccccc1)c1ccc(OCCN(C)C)cc1)c1ccccc1 [tamoxifen]	suppressed in a dose-dependent manner	suppressed in a dose-dependent manner	not significantly changed	not significantly changed	elevated-AKT level	upregulated; also recorded: enhanced SOX2 expression	significant prolonged degradation of TRBP protein	significant prolonged degradation of TRBP protein	without inducing any significant cytotoxic effects	no significant induction of TRBP	no significant induction of TRBP	no significant induction of TRBP	induced the TRBP expression in a dose-dependent manner	reduction of cyclin D1	upregulated expression of SOX2 protein	elevated-SOX2 level	degraded more slowly	degraded more slowly	noncytotoxic	–
4-hydroxytamoxifen	–	–	–	–	–	–	–	–	–	–	–	–	–	–	–	–	–	–	–	noncytotoxic
